Laboratory results from US20070015723A1, “Antiviral oligonucleotides having a conserved G4 core sequence” (priority 1992, published 2007).
pEC50: −log10 of the molar value. Values joined by “and” are separate entries in the source; they are usually repeats but may differ in a detail not shown here. Equal entries are not always repeated. {Fluor} = fluorescein moiety via fluorescein-labeled amidite

system: HSV-1 (KOS); assay: HSV-1 infection ELISA assay; format: cell-based; conditions: 50% inhibition of HSV replication relative to control infected cells; Table 1

Row | Substance | pEC50
1 | ISIS 4872: GGC GGG ACT ACG GGG, P = S, SEQ ID NO 11 (GGCGGGACTACGGGG; all phosphorothioate, sugars by position and methylation of C not given here) | 5.72 and 5.77
2 | ISIS 4874: AGG CAT GAC CGG GGC, P = S, SEQ ID NO 3 (AGGCATGACCGGGGC; all phosphorothioate, sugars by position and methylation of C not given here) | 5.96 and 6.08
3 | ISIS 4882: CAT GGC GGG ACT ACG, P = S, SEQ ID NO 9 (CATGGCGGGACTACG; all phosphorothioate, sugars by position and methylation of C not given here) | 5.77 and 5.85
4 | ISIS 4885: A GAC CGG GGT TGG GG, P = S, SEQ ID NO 24 (AGACCGGGGTTGGGG; all phosphorothioate, sugars by position and methylation of C not given here) | 6.38 and 6.29
5 | ISIS 4889: AGG GGA ATC CGT CAT, P = S, SEQ ID NO 14 (AGGGGAATCCGTCAT; all phosphorothioate, sugars by position and methylation of C not given here) | 5.70
6 | ISIS 4890: GCC AGG GGA ATC CGT, P = S, SEQ ID NO 15 (GCCAGGGGAATCCGT; all phosphorothioate, sugars by position and methylation of C not given here) | 6.12 and 6.15
7 | ISIS 4894: CAT CGC CGA TCG GGG, P = S, SEQ ID NO 18 (CATCGCCGATCGGGG; all phosphorothioate, sugars by position and methylation of C not given here) | < 5.52
8 | ISIS 4895: CGC CGA TGC GGG GCG, P = S, SEQ ID NO 19 (CGCCGATGCGGGGCG; all phosphorothioate, sugars by position and methylation of C not given here) | 6.26
9 | ISIS 4896: GC CGA TGC GGG G, P = S, SEQ ID NO 20 (GCCGATGCGGGG; all phosphorothioate, sugars by position and methylation of C not given here) | 5.92
10 | ISIS 5302: CAC GAA AGG CAT GAC, P = S, SEQ ID NO 7 (CACGAAAGGCATGAC; all phosphorothioate, sugars by position and methylation of C not given here) | < 5.52

same assay, conditions: Table 12, inosine-substituted

Row | Substance | pEC50
11 | ISIS 4925: GTT GGA GAC CGG IGT TGG IG, Inosine #13, 19, SEQ ID NO 137 (GTT GGA GAC CGG IGTTGG IG; inosine at 13, 19, as printed in the source, key not given here) | 5.80
12 | ISIS 5295: GTT GGA GAC CGG GIT TGG GG, Inosine #14, SEQ ID NO 138 (GTT GGA GAC CGG GITTGG GG; inosine at 14, as printed in the source, key not given here) | < 5.52
13 | ISIS 5296: GTT GGA GAC CGG GGT TGG IG, Inosine #19, SEQ ID NO 139 (GTT GGA GAC CGG GGTTGG IG; inosine at 19, as printed in the source, key not given here) | 6.10
14 | ISIS 5309: GTT GGA GAC CGI GGT TGG GG, Inosine #12, SEQ ID NO 140 (GTT GGA GAC CGI GGTTGG GG; inosine at 12, as printed in the source, key not given here) | < 5.52
15 | ISIS 5310: GTT GGA GAC CGG GGT TGG GI, Inosine #20, SEQ ID NO 141 (GTT GGA GAC CGG GGTTGG GI; inosine at 20, as printed in the source, key not given here) | 6.40

same assay, conditions: Table 13, fluorescein-conjugated

Row | Substance | pEC50
16 | ISIS 5339: sequence of 1082 (SEQ ID NO 134) with a fluorescein moiety conjugated to the 5′ end (GCCGAGGTCCATGTCGTACGC; DNA, 5' {Fluor}, backbone not given here) | 6.19
